Assay results as given in ChEMBL document CHEMBL3244065, “Neuroleptics related to butaclamol. An investigation of the effects of chlorine substituents on the aromatic rings” (J Med Chem, 1978).

What was measured:
Rattus norvegicus [1] = experiment: Neuroleptic activity in ip dosed Sprague-Dawley rat assessed as inhibition of amphetamine-induced stereotyped behaviour administered 15 mins after d-amphetamine challenge; type: functional; details: 0.25 h, read-out: MED
Rattus norvegicus [2] = experiment: Neuroleptic activity in ip dosed Sprague-Dawley rat assessed as conditioned active avoidance failure after 30 mins; type: functional; details: 0.5 h
Rattus norvegicus [3] = experiment: Neuroleptic activity in ip dosed Sprague-Dawley rat assessed as dose required to decrease the continuous (Sidman) lever-pressing response to <50%; type: functional
Rattus norvegicus [4] = experiment: Neuroleptic activity in ip dosed Sprague-Dawley rat assessed as protection against epinephrine-induced mortality administered 1 hr prior to epinephrine injection; type: functional
Rattus norvegicus [5] = experiment: Toxicity in ip dosed Sprague-Dawley rat assessed as induction of maximum catalepsy; type: organism-based; details: in vivo

For CC(C)[C@@]1(O)CCN2C[C@@H]3c4ccccc4CCc4c(Cl)ccc(c43)[C@H]2C1.Cl, the minimal effective dose (Rattus norvegicus [1]) was 10 mg/kg, the ED50 (Rattus norvegicus [2]) was 9 mg/kg and the Activity (Rattus norvegicus [3]) was 2.5 mg/kg. The ED50 (Rattus norvegicus [4]) was 50 mg/kg and the MED (Rattus norvegicus [5]) was 50 mg/kg.
CC(C)[C@@]1(O)CCN2C[C@@H]3c4cccc(Cl)c4CCc4cccc(c43)[C@H]2C1.Cl showed a minimal effective dose (Rattus norvegicus [1]) of 20 mg/kg, an ED50 (Rattus norvegicus [2]) greater than 20 mg/kg and an Activity (Rattus norvegicus [3]) of 20 mg/kg. It also gave an ED50 (Rattus norvegicus [4]) of 100 mg/kg and an MED (Rattus norvegicus [5]) of 100 mg/kg.
Work on CC(C)[C@@]1(O)CCN2C[C@@H]3c4ccc(Cl)cc4CCc4cccc(c43)[C@H]2C1.Cl yielded a minimal effective dose (Rattus norvegicus [1]) of 1.25 mg/kg, an ED50 (Rattus norvegicus [2]) of 1.1 mg/kg and an Activity (Rattus norvegicus [3]) of 0.62 mg/kg. It also gave an ED50 (Rattus norvegicus [4]) of 13.9 mg/kg and an MED (Rattus norvegicus [5]) of 12.5 mg/kg.
In the case of CC(C)[C@@]1(O)CCN2C[C@@H]3c4cc(Cl)ccc4CCc4c(Cl)ccc(c43)[C@H]2C1.Cl, the minimal effective dose (Rattus norvegicus [1]) is reported as greater than 20 mg/kg, the Activity (Rattus norvegicus [3]) is reported as greater than 5 mg/kg and the ED50 (Rattus norvegicus [4]) is reported as greater than 60 mg/kg.
Work on OCCN1CCN(C2Cc3cc(Cl)ccc3Sc3ccccc32)CC1 (stereo not drawn) yielded a minimal effective dose (Rattus norvegicus [1]) of 20 mg/kg, an ED50 (Rattus norvegicus [2]) of 4.5 mg/kg and an Activity (Rattus norvegicus [3]) of 2.5 mg/kg. The ED50 (Rattus norvegicus [4]) was 0.88 mg/kg and the MED (Rattus norvegicus [5]) was greater than 50 mg/kg.
In the case of CN1CCN(C2=Nc3cc(Cl)ccc3Nc3ccccc32)CC1 [CLOZAPINE], the minimal effective dose (Rattus norvegicus [1]) is reported as 50 mg/kg, the ED50 (Rattus norvegicus [2]) is reported as 6.8 mg/kg and the Activity (Rattus norvegicus [3]) is reported as 7.5 mg/kg. For the same compound, the ED50 (Rattus norvegicus [4]) was 2.4 mg/kg and the MED (Rattus norvegicus [5]) was greater than 100 mg/kg.
With CC(C)[C@@]1(O)CCN2C[C@@H]3c4ccccc4CCc4cccc(c43)[C@H]2C1 [DEXCLAMOL] the minimal effective dose (Rattus norvegicus [1]) was 1.25 mg/kg, the ED50 (Rattus norvegicus [2]) was 0.64 mg/kg and the Activity (Rattus norvegicus [3]) was 0.5 mg/kg. For the same compound, the ED50 (Rattus norvegicus [4]) was 15 mg/kg and the MED (Rattus norvegicus [5]) was 12.5 mg/kg.
